Measurements taken from EP2204363A1, “New disubstituted phenylpiperidines/piperazines as modulators of dopamine neurotransmission” (NSAB, Filial af NeuroSearch Sweden AB, Sverige, priority 2004, dated 2005).
Where two headings read alike, the source gives them in different places.

Assays:
[1] = Activity of compounds of Formula 1 (test not specified)
[2] = system: DOPAC (3,4-dihydroxyphenylacetic acid) in the rat striatum; experiment: In vivo neurochemistry: increase of DOPAC in the rat striatum; conditions: for ED50: read-out: ED50 DOPAC
Excerpt: After the behavioural activity sessions, the rats were decapitated and their brains rapidly taken out and put on an ice-cold petri-dish. The limbic forebrain, the striatum, the frontal cortex and the remaining hemispheral parts of each rat were dissected and frozen. Each brain part was subsequently analyzed with respect to its content of monoamines and their metabolites.
The monoamine transmitter substances (NA (noradrenaline), DA (dopamine), 5-HT (serotonin)) as well as their amine (NM (normethanephrine), 3-MT (3-methoxytyramine)) and acid (DOPAC (3,4-dihydroxyphenylacetic acid), 5-HIAA (5-hydroxyindoleacetic acid), HVA (homovanillic acid)) metabolites are quantified in brain tissue homogenates by HPLC separations and electrochemical detection
The analytical method is based on two chromatographic separations dedicated for amines or acids. Two chromatographic systems share a common auto injector with a 10-port valve and two sample loops for simultaneous injection on the two systems. Both systems are equipped with a reverse phase column (Luna C18(2), dp […], 50*2mm i.d., Phenomenex) and electrochemical detection is accomplished at two potentials on glassy carbon electrodes (MF-1000, Bioanalytical Systems, Inc.). The column effluent is passed via a T-connection to the detection cell or to a waste outlet. This is accomplished by two solenoid valves, which block either the waste or detector outlet. By preventing the chromatographic front from reaching the detector, better detection conditions are achieved. […] Detection potentials relative to Ag/AgCl reference are 0.45 and 0.60V. […] Detection potentials relative to Ag/AgCl reference are 0.45 and 0.65V.
ED50 values for the increase of DOPAC in striatum are calculated by curve fitting.

drug-naive rats = experiment: In vivo behaviour: locomotor activity in drug-naive rats; conditions: ± SEM
Excerpt: (§1) Photobeam sensors were spaced 2.5 cm apart.

[3] = Metabolic stability in rat liver microsomes; format: in vitro ADME; conditions: pH 7.4, 37 °C, NADPH, fraction of test compound eliminated after 15 minutes, read-out: turnover at 15 minutes
Procedure: The protein precipitation was then removed by rejecting the pellet after centrifugation at 10.000 g for 10 minutes (Heraeus, Biofuge fresco) in 4°C. The test compound was analysed using HPLC-MS (Hewlett-Packard 1100MSD Series) with a Zorbax SB-C18 column (2.1*150 mm, 5 µm) using 0.03% formic acid and acetonitrile as mobile phase (gradient) or a Zorbax Eclipse XDB-C18 (3*75 mm, 3.5µm) using 0.03% acetic acid and acetonitrile as mobile phase (gradient).

MK-801 pre-treated rats = experiment: In vivo behaviour: locomotor activity in MK-801 pre-treated rats; conditions: MK-801 0.7 mg/kg i.p. 90 minutes before test compound, 30 to 60 minutes after administration, ± SEM
Excerpt: as §1

[4] = system: levels of dopamine and norepinephrine in the cortex; experiment: Microdialysis in awake and freely moving rats (cortex); format: in vivo; conditions: percent of control in relation to baseline
[5] = sc, estimated ED50 on increase of DOPAC in rat striatum after systemic administration (s.c.), maximal effects limited to 350 - 400% of control, range covers 95% of fits
[6] = drug-naive habituated rats, 11 µmol/kg, recorded between 30 and 60 minutes
[7] = drug-naive habituated rats, 33 µmol/kg, recorded between 30 and 60 minutes
[8] = drug-naive habituated rats, 100 µmol/kg, recorded between 30 and 60 minutes
[9] = drug-naive rats, 11 µmol/kg, recorded for 60 minutes
[10] = drug-naive rats, 33 µmol/kg, recorded for 60 minutes
[11] = drug-naive rats, 100 µmol/kg, recorded for 60 minutes

Structure (SMILES) | ED50 [2, 5] [µmol/kg] | Locomotor activity (drug-naive rats; [9]) [counts/60 min] | Locomotor activity (drug-naive rats; [10]) [counts/60 min] | Locomotor activity (drug-naive rats; [11]) [counts/60 min] | also measured
CCCN1CCC(c2cccc(S(C)(=O)=O)c2C(F)(F)F)CC1 [4-[3-(methylsulfonyl)-2-(trifluoromethyl)phenyl]-1-propylpiperidine] | – | – | – | – | activity [1]: inactive
CCCN1CCC(c2cccc(S(C)(=O)=O)c2F)CC1 [Example 1, 4-[2-FLUORO-3-(METHYLSULFONYL)PHENYL]-1-PROPYLPIPERIDINE] | 28 | 9500 ± 617 | 7371 ± 992 | 8103 ± 1047 | Locomotor activity (drug-naive rats; [6]): 1708 ± 922 counts/30 min; Locomotor activity (drug-naive rats; [7]): 1337 ± 141 (P=0.001) counts/30 min; Locomotor activity (drug-naive rats; [8]): 1365 ± 460 (P=0.057) counts/30 min; metabolised at 0.25 h [3]: 3%; Locomotor activity, MK + example (MK-801 pre-treated rats; 33 µmol/kg): 29636 ± 10019 (P=0.08) counts/30 min
CCN1CCC(c2cccc(S(C)(=O)=O)c2F)CC1 [Example 2, 1-ETHYL-4-[2-FLUORO-3-(METHYLSULFONYL)PHENYL]-PIPERIDINE] | – | – | – | – | metabolised at 0.25 h [3]: 1%; levels of dopamine and norepinephrine in the cortex ([4]; Figure 2: 50 mol/kg s.c. (so in the source), pf. cortex): elevate the levels of dopamine and norepinephrine in the cortex
CCCN1CCC(c2cccc(S(C)(=O)=O)c2Cl)CC1 [Example 3, 4-[2-CHLORO-3-(METHYLSULFONYL)PHENYL]-1-PROPYLPIPERIDINE] | 9.9 | 6078 ± 605 | 3023 ± 246 | 1327 ± 299 | Locomotor activity, MK + example (MK-801 pre-treated rats; 100 µmol/kg (footnote 1)): 4911 ± 2953^1 (P=0.08) counts/30 min
CCCN1CCC(c2cccc(S(C)(=O)=O)c2C)CC1 [Example 4, 4-[2-METHYL-3-(METHYLSULFONYL)PHENYL]-1-PROPYLPIPERIDINE] | 58 | 8972 ± 1124 | 9023 ± 1415 | 4473 ± 924 | metabolised at 0.25 h [3]: 4%
CCCN1CCC(c2cccc(C(F)(F)F)c2C#N)CC1 [Example 7, 2-(1-PROPYLPIPERIDIN-4-YL)-6-(TRIFLUOROMETHYL)BENZONITRILE] | 9.7 | 7008 ± 700 | 4694 ± 986 | 2829 ± 358 | metabolised at 0.25 h [3]: 22%
CCCN1CCC(c2cccc(C(F)(F)F)c2OC)CC1 [Example 8, 4-[2-METHOXY-3-(TRIFLUOROMETHYL)PHENYL]-1-PROPYLPIPERIDINE] | – | – | – | – | metabolised at 0.25 h [3]: 49%
CCCN1CCC(c2ccc(Cl)c(C(F)(F)F)c2)CC1 [Example 9 of WO01/46146, reference compound] | – | – | – | – | ED50 ([2]; Rattus norvegicus): 40 µmol/kg
CCCN1CCN(c2cccc(C(F)(F)F)c2F)CC1 [Example 9, 1-[2-FLUORO-3-(TRIFLUOROMETHYL)PHENYL]-4-PROPYLPIPERAZINE] | – | 3721 ± 242 | 3518 ± 435 | 4265 ± 758 | ED50 ([2]; Rattus norvegicus, sc): 1.9 µmol/kg; Locomotor activity, MK + example (MK-801 pre-treated rats; 11 µmol/kg (footnote 2)): 5916± 1918^2 (P=0.002) counts/30 min
COCCN1CCN(c2cccc(C(F)(F)F)c2F)CC1 [Example 10, 1-[2-FLUORO-3-(TRIFLUOROMETHYL)PHENYL]-4-(2-METHOXYETHYL)PIPERAZINE] | – | – | – | – | ED50 ([2]; Rattus norvegicus, sc): 6.2 µmol/kg
CCCN1CCN(c2cccc(Cl)c2Cl)CC1 [Example 11, 1-(2,3-DICHLOROPHENYL)-4-PROPYLPIPERAZINE] | – | 5149 ± 374 | 4032 ± 828 | 3299 ± 637 | ED50 ([2]; Rattus norvegicus, sc): 3.5 µmol/kg
CCN1CCC(c2cccc(S(C)(=O)=O)c2)CC1 [Example 12 of WO01/46145, reference compound] | 154 | – | – | – | –
CCCN1CCC(c2cccc(C#N)c2C(F)(F)F)CC1 [Example 13, 3-(1-PROPYLPIPERIDIN-4-YL)-2-(TRIFLUORO-METHYL)BENZONITRILE] | – | – | – | – | Locomotor activity (drug-naive rats; [6]): 960 ± 710 counts/30 min; Locomotor activity (drug-naive rats; [7]): 2870 ± 613 (P=0.008) counts/30 min; Locomotor activity (drug-naive rats; [8]): 4366 ± 1389 (P=0.030) counts/30 min
CCCN1CCN(c2cccc(C#N)c2C(F)(F)F)CC1 [Example 14, 3-(4-PROPYLP I PE RAZI N-1-YL)-2-(TRI FLUORO-M ETHYL)B ENZON ITRI LE] | – | – | – | – | ED50 ([2]; Rattus norvegicus, sc): 2.4 µmol/kg
CCCN1CCC(c2cccc(S(C)(=O)=O)c2C#N)CC1 [Example 15, 2-(METHYLSULFONYL)-6-(1-PROPYLPIPERIDIN-4-YL)BENZONITRILE] | 28 | – | – | – | –
CCCN1CCC(c2ccc(F)c(C(F)(F)F)c2)CC1 [Example 43 of WO01/46146, reference compound] | – | – | – | – | ED50 ([2]; estimated ED50 on increase of DOPAC in rat striatum, maximal effects set to 200% of control, range covers 95% of fits): 35 µmol/kg
CN1CCN2c3ncccc3Cc3ccccc3C2C1 (stereo not drawn) [mirtazapine, reference compound] | – | – | – | – | extracellullar norepinephrine and dopamine in the cortex ([4]; Figure 1: Remeron 10mg/kg s.c., cortex): increase predominantly extracellullar norepinephrine and dopamine in the cortex
CCCN1CCC(c2cccc(C(F)(F)F)c2)CC1 [reference compound] | – | – | – | – | ED50 DOPAC ([2]; estimated ED50 on increase of DOPAC in rat striatum after systemic administration (s.c.), maximal effects limited to 350 - 400% of control, range covers 95% of fits): 84 (47 - 110) µmol/kg
